Test results as given in patent US10806694B2, “Nanoparticles for photodynamic therapy, X-ray induced photodynamic therapy, radiotherapy, radiodynamic therapy, chemotherapy, immunotherapy, and any combination thereof” (The University of Chicago, priority 2014, dated 2020).

Legend:
[1] = Singlet oxygen generation with Singlet Oxygen Sensor Green (SOSG) under LED irradiation; type: physicochemical; settings: for k (fitting parameter for 1O2 generation curve): 0.1 W/cm^2, 650 nm LED for DBC-UiO and H2DBC, 640 nm for the others
Procedure: A light-emitting diode (LED) array with peak emission at 640 nm was used as the light source of singlet oxygen generation. The irradiance of LED is 100 mW/cm^2. Singlet oxygen sensor green (SOSG) reagent (Life Technologies, Carlsbad, Calif., United States of America) was employed for the detection of singlet oxygen. H2DBP and DBP-UiO samples were prepared in 5 μM solutions/suspensions in HBSS buffer (for DBP-UiO samples, the concentration was calculated as ligand equivalents). To 2 mL each of these solutions/suspensions, SOSG stock solution (5 μL at 5 mM) was added (final concentration=12.5 μM) before fluorescence measurement.
For a typical measurement, fluorescence intensity was acquired on a spectrofluorophotometer (RF-5301PC, Shimadzu Corporation, Kyoto, Japan) with excitation at 504 nm and emission at 525 nm (slit width 3 nm/5 nm for ex/em). Fluorescence was measured after irradiation by LED for 0 (as background), 10 s, 20 s, 30 s, 1 min, 1.5 min, 2 min, 2.5 min, 3 min, 3.5 min, 4 min, 4.5 min, 5 min, 6 min and 7 min.
Singlet oxygen generation efficiencies of H2DBP and DBP-UiO were determined using Singlet Oxygen Sensor Green (SOSG, Life Technologies). After exposure to a LED light source (peak emission at 640 nm, energy irradiance of 100 mW/cm^2), the […] reagent SOSG reacted with ^1O2 to generate green fluorescence which was quantified with a fluorimeter. The fluorescence intensity was plotted against irradiation time. […] The ^1O2 generation curve was fitted with the following equation: IF=A(1−e^−kt) (1) Where IF is fluorescence intensity and t represents irradiation time while A and k are fitting parameters (for detailed derivations, see SI). […]
Singlet Oxygen Sensor Green (SOSG) was employed to determine ^1O2 generation efficiencies of H2DBC and DBC-UiO. SOSG reacted with generated ^1O2 to give green fluorescence (λem=525 nm) that was quantified with a fluorometer. For comparison, ^1O2 generation efficiency of H2DBP, DBP-UiO and protoporphyrin IX (PpIX) were also determined. […]

[2] = system: CT26 cells; assay: Apoptosis after PDT, Annexin V/dead cell kit, flow cytometry; type: cell-based, murine; settings: 5 μM
Procedure: (§1) CT26 cells were incubated with 5 μM DBC-UiO or H2DBC followed by light irradiation at 0.1 W/cm^2 for 15 min (90 J/cm^2). The apoptosis induced by PDT treatment was determined with the Alexa Fluor 488 Annexin V/dead cell apoptosis kit by flow cytometry. […] Calreticulin (CRT) is a distinct biomarker exposed on the surface of cells undergoing ICD. The CRT expression was determined by flow cytometry and immunofluorescence to assess the ICD induced by DBC-UiO induced PDT. CT26 cells were treated with 5 μM DBC-UiO or H2DBC followed by light irradiation at 0.1 W/cm^2 for 15 min (90 J/cm^2). For flow cytometry analysis, cells were collected and stained with Alexa Fluor 488-CRT antibody and propidium iodide (PI). The fluorescence intensity of stained cells was gated on PI-negative cells. For immunostaining analysis, the cells were stained with AlexaFluor 488-CRT conjugated antibody and DAPI nuclei stain, and observed using confocal laser scanning microscopy (CLSM).

[3] = system: CT26 cells; assay: Calreticulin (CRT) surface expression after PDT (immunogenic cell death); type: cell-based, murine; settings: 5 μM
Procedure: as §1

[4] = system: SQ20B subcutaneous xenograft murine models; assay: In vivo PDT efficacy; design: species or system mice; settings: 3.5 mg/kg intratumoral, 180 J/cm^2, single treatment
Procedure: The PDT efficacy of DBP-UiO was investigated using SQ20B subcutaneous xenograft murine models. Tumor bearing mice were established by subcutaneous inoculation of SQ20B cell suspension (5×10^6 cells per mouse) into the right flank region of 6-week athymic female nude mice. Three groups were included for comparison: PBS as control, H2DBP, and DBP-UiO. When tumors reached 100 mm^3, PBS, H2DBP, and DBP-UiO were intratumorally injected to animals at a DBP dose of 3.5 mg/kg. At 12 h post-injection, mice were anesthetized with 2% (v/v) isoflurane and tumors were irradiated with a 640 nm LED for 30 min. The light intensity was measured as 100 mW/cm^2, and the total light dose was 180 J/cm^2. Both injection and PDT were performed once.
To evaluate the therapeutic efficacy, tumor growth and body weight evolution were monitored. The tumor size was measured with a digital caliper every day. Tumor volumes were calculated as follows: (width^2×length)/2. Finally, all mice were sacrificed on Day 8, and the excised tumors were photographed and weighed. Tumors were fixed with formalin. Paraffin-embedded 5 μm tumor sections were stained with hematoxylin and erosin (H&E) and observed with light microscopy (Pannoramic Scan Whole Slide Scanner, Perkin Elmer, Waltham, Mass., United States of America).
In vivo experiments on SQ20B subcutaneous xenograft murine models were carried out. […]

Compound | k (fitting parameter for 1O2 generation curve) [1] [min⁻¹] | apoptosis or necrosis ([2]; in the dark) | apoptosis ([2]; light irradiation 90 J/cm^2) | surface CRT expression ([3]; light irradiation 90 J/cm^2) | surface CRT expression ([3]; without light irradiation) | k (singlet oxygen generation rate) ([1]; 5 μM in HBSS, 640 nm LED 100 mW/cm^2, listed as DBP) [s⁻¹] | tumor growth [4]
5, 15-di(p-benzoato)chlorin [H2DBC] | 0.25 | No apoptosis or necrosis was observed | significant amounts of cells underwent apoptosis | significant amounts of CRT were detected | no surface CRT expression | – | –
O=C(O)c1ccc(-c2c3nc(cc4ccc([nH]4)c(-c4ccc(C(=O)O)cc4)c4nc(cc5ccc2[nH]5)C=C4)C=C3)cc1 [H2DBP, 5,15-di(p-benzoato)porphyrin] | 0.06 | – | – | – | – | 0.0015 | slightly suppressed after PDT, however accelerated after 5 days and exhibited no difference to the control group at the endpoint
